Here are results for 9 compounds from ChEMBL document CHEMBL1201862, “PubChem BioAssay data set” (2004).

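All cell lines were grown in 96-well plates and treated with compound for 48 hours. GI50: concentration for 50% inhibition of growth.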 Activity calls are given as the source filed them. No stated cut-off is given here; in the data, active = GI50 up to about 1.1 µM and inactive = higher.

Some test systems named below: CAKI-1; HCC 2998; HL-60; HOP-62; HOP-92; IGROV-1; NCI-H23; NCI-H522; OVCAR-4; OVCAR-5; SF-295; SK-MEL-28; TK-10; U-251; UACC-257; UO-31; HCT-15.
Assay in all cases: NCI anticancer screen, dose series, 48 h

Turning to `COC(=O)c1c2c(cc3c1CC1(Cc4cc5c(c(C(C)=O)c4C1)CCC5)C3)CCC2` (stereo unspecified), the GI50 with CAKI-1 is 34.2 µM (inactive); in the test with HCC 2998, > 100 µM (inactive); with HL-60, 11.8 µM (inactive); in the test with HOP-62, 42 µM (inactive); in the test on HOP-92, 22.3 µM (inactive); in the test with IGROV-1 it was 72.8 µM (inactive). The GI50 in the test with NCI-H23 was 64.1 µM (inactive); in the test with NCI-H522, 17 µM (inactive); in the test on OVCAR-4 it was 36.7 µM (inactive); in the test with OVCAR-5, > 100 µM (inactive); with SF-295, 28.8 µM (inactive); with SK-MEL-28, > 100 µM (inactive). Further, the GI50 is > 100 µM (inactive) in the test with TK-10, 78.3 µM (inactive) in the test on U-251, 34.9 µM (inactive) in the test on UACC-257 and 38 µM (inactive) in the test with UO-31.
Take `COc1cc(/C=C(\NC(=O)c2ccccc2)c2nc3ccc4c(c3[nH]2)C(=O)c2ccccc2C4=O)cc(OC)c1OC`: the GI50 was 10.1 µM (inactive) in the test with CAKI-1; > 100 µM (inactive) in the test with HCC 2998; 35.7 µM in the test on HCT-15; > 100 µM (inactive) in the test on HOP-62; 25.4 µM (inactive) with HOP-92; 10.7 µM (inactive) in the test on IGROV-1. In addition, the GI50 was 55.6 µM (inactive) in the test on NCI-H23; 7.24 µM (inactive) in the test with NCI-H522; 69.3 µM (inactive) in the test with OVCAR-4; > 100 µM (inactive) with OVCAR-5; 55.7 µM (inactive) in the test on SF-295; 77.6 µM (inactive) in the test on SK-MEL-28. Also, the GI50 was 29.2 µM (inactive) in the test with TK-10, 31.9 µM (inactive) in the test on U-251, > 100 µM (inactive) in the test with UACC-257 and 2.36 µM (inactive) in the test on UO-31.
On to `Cc1c(C(=O)O)n(C)c(=O)n(C)c1=O`, for which the GI50 with CAKI-1 is > 100 µM (inactive); in the test on HCC 2998, > 100 µM (inactive); in the test on HCT-15, over 100 µM; in the test with HL-60, > 100 µM (inactive); in the test with HOP-62, > 100 µM (inactive); in the test with HOP-92, > 100 µM (inactive). In addition, the GI50 in the test on IGROV-1, in the test with NCI-H23, in the test with NCI-H522, in the test with OVCAR-4, in the test on OVCAR-5 and in the test with SF-295 was > 100 µM (inactive) each time. In addition, the GI50 in the test with SK-MEL-28, in the test with TK-10, in the test with U-251, in the test with UACC-257 and in the test on UO-31 was > 100 µM (inactive) in each case.
For `Clc1ccc(SC(/C=C/NNC2=NN=C(c3ccccc3)C(c3ccccc3)N2)c2ccccc2)cc1` (stereo unspecified), the GI50 was 12.3 µM (inactive) with CAKI-1; 19.7 µM (inactive) in the test with HCC 2998; 26.9 µM with HCT-15; 14.6 µM (inactive) in the test on HL-60; 33 µM (inactive) in the test on HOP-62; 7.98 µM (inactive) with HOP-92. The GI50 was 49.3 µM (inactive) with IGROV-1; 10.4 µM (inactive) with NCI-H23; 17.9 µM (inactive) in the test with NCI-H522; 17.9 µM (inactive) in the test on OVCAR-4; 33.8 µM (inactive) in the test on OVCAR-5; 19.3 µM (inactive) in the test on SF-295. Moreover, the GI50 in the test with SK-MEL-28 was 20.8 µM (inactive); with TK-10, 36.5 µM (inactive); with U-251 it was 31.2 µM (inactive); in the test with UACC-257 it was 21.7 µM (inactive); in the test on UO-31, 13.2 µM (inactive).
Regarding `Cn1c(=O)c(C(=O)NC(=O)OCc2ccccc2)cn(CCSCCOC(=O)NCCCCCCNC(=O)OCCSCCn2cc(C(=O)NC(=O)OCc3ccccc3)c(=O)n(C)c2=O)c1=O`, the GI50 with HCC 2998 is > 100 µM (inactive); in the test on HCT-15, over 100 µM; in the test with HL-60, > 100 µM (inactive); in the test on HOP-62 it was 36.7 µM (inactive); with HOP-92, 23.2 µM (inactive); in the test on IGROV-1, > 100 µM (inactive). Moreover, the GI50 in the test with NCI-H23, in the test on NCI-H522, in the test on OVCAR-4, with OVCAR-5, with SK-MEL-28 and in the test with TK-10 was > 100 µM (inactive) each time. Also, the GI50 with U-251 was 63.4 µM (inactive); with UO-31 it was 74.6 µM (inactive).
In the case of `CC[N+](C)(C)c1ccc(C(=C2C=CC(=[N+](C)C)C=C2)c2ccc(N(C)C)cc2)cc1`, the GI50 in the test on CAKI-1 is 23.7 µM (inactive); with HCC 2998, 6.17 µM (inactive); with HCT-15, 22.2 µM; in the test with HL-60 it was 2.4 µM (inactive); with HOP-62 it was 8.34 µM (inactive); in the test with HOP-92 it was 19.5 µM (inactive). Also, the GI50 in the test on IGROV-1 was 12 µM (inactive); in the test on NCI-H23 it was 17.7 µM (inactive); in the test with NCI-H522 it was 2.79 µM (inactive); in the test on OVCAR-4, 15.1 µM (inactive); in the test with OVCAR-5, 52 µM (inactive); with SF-295 it was 8.67 µM (inactive). Moreover, the GI50 with SK-MEL-28 was 16.9 µM (inactive); in the test with TK-10, 28 µM (inactive); in the test with U-251, 3.94 µM (inactive); in the test with UACC-257, 13.2 µM (inactive); in the test with UO-31, 27.5 µM (inactive).
As to `Cc1nc2ccccc2c(=O)n1/N=C(\N=N\c1ccccc1)c1ccccc1Cl`, the GI50 with CAKI-1 is 25.4 µM (inactive); with HCC 2998, 38.2 µM (inactive); in the test with HCT-15 it was 48.1 µM; in the test with HL-60 it was 33.3 µM (inactive); in the test on HOP-62, 32.1 µM (inactive); in the test with HOP-92, 25 µM (inactive). For the same compound, the GI50 was 39.9 µM (inactive) in the test on IGROV-1; 27.7 µM (inactive) in the test with NCI-H23; 30.2 µM (inactive) in the test on NCI-H522; 41 µM (inactive) in the test with OVCAR-4; > 100 µM (inactive) in the test on OVCAR-5; 1.04 µM (active) with SF-295. Also, the GI50 was 79.3 µM (inactive) with SK-MEL-28; 38.9 µM (inactive) in the test with TK-10; 40.6 µM (inactive) with U-251; 75 µM (inactive) with UACC-257; 29.2 µM (inactive) in the test with UO-31.
Consider `Cc1ccc(N2C(=O)C(Cl)=C(Cl)C2=O)cc1`, for which the GI50 was 17.1 µM (inactive) in the test with CAKI-1; 34.4 µM (inactive) with HCC 2998; 19.2 µM in the test with HCT-15; 30.1 µM (inactive) in the test with HOP-62; 18.2 µM (inactive) in the test with HOP-92; 20.8 µM (inactive) in the test on IGROV-1. For the same compound, the GI50 with NCI-H23 is 20.7 µM (inactive); with NCI-H522, 13 µM (inactive); with OVCAR-4, 19.2 µM (inactive); with OVCAR-5 it was 18 µM (inactive); with SF-295 it was 71.8 µM (inactive); in the test on SK-MEL-28 it was 16.5 µM (inactive). For the same compound, the figures for the GI50 in the test on U-251, in the test on UACC-257 and with UO-31 were 38.3 µM (inactive), 19.1 µM (inactive) and 31.7 µM (inactive), respectively.
Consider `CC1(Br)C(=O)NC(=O)N([C@H]2C[C@H](O)[C@@H](CO)O2)C1N=[N+]=[N-]` (stereo partly specified), for which the GI50 with CAKI-1 was > 100 µM (inactive); with HCC 2998 it was > 100 µM (inactive); with HCT-15, over 100 µM; with HL-60, > 100 µM (inactive); in the test with HOP-62, > 100 µM (inactive); with HOP-92, > 100 µM (inactive). In addition, the GI50 was > 100 µM (inactive) in the test on IGROV-1; > 100 µM (inactive) in the test with NCI-H23; > 100 µM (inactive) in the test on NCI-H522; > 100 µM (inactive) in the test on OVCAR-4; > 76.2 µM (inactive) with OVCAR-5; > 100 µM (inactive) in the test with SF-295. Moreover, the GI50 with SK-MEL-28, in the test with TK-10, in the test with U-251, with UACC-257 and in the test on UO-31 was > 100 µM (inactive) throughout.
